These molecules were tested on Human pleural mesothelioma cells NCI-H226 (assay: Proliferation inhibition assay of human pleural mesothelioma cells NCI-H226 (CCK8)). Settings: 72 h, 3 days incubation.
Type: cell-based
Source text: Experimental Example 1 Cell Anti-Proliferation Test
Proliferation Inhibition Assay of Human Pleural Mesothelioma Cells NCI-H226 by YAP-TEAD Inhibitor Compounds
Experimental materials and equipment: Human pleural mesothelioma cells NCI-H226 were purchased from Nanjing Cobioer Biosciences CO., LTD. RPMI-1640 medium (Bio-Channel), DMSO (dimethyl sulfoxide), CCK8 (WST-8) cell analysis kit (Beyotime), 0.25% EDTA-Tripsin (trypsin solution), 1×PBS (phosphate buffer, PH7.2), 96-well plate (Corning), fetal bovine serum (FBS), 10,000 U/mL penicillin-G/streptomycin, high-speed cryo-centrifuge (EPPENDORF 5810R), enzyme-linked immunoassay (Tecan Spark).
• A) Tumor cells were cultured in RPMI-1640 (containing 10% FBS and 100 U/mL penicillin-G/streptomycin) at 37° C., 5% CO^2 and saturated humidity until 80-90% density. • B) Removed the culture medium from 10 cm Petri dishes; • C) Rinsed the cells once with 10 ml 1×PBS; • D) Added 4 ml 0.25% EDTA-Tripsin into 37° C., 5% CO^2 incubator for trypsin digestion for 5 minutes, transferred to 15 ml centrifuge tube, centrifuged at 200 g for 5 minutes, discarded the supernatant to get cell precipitate; • E) Resuspend with 4 ml DMEM medium, count and adjust to 10,000 cells/ml. • F) Added cell suspension to 96-well plate with 100 μL per well volume and incubate overnight at 37° C., 5% CO^2 incubator.
• A) Preparation of gradient dilution solution of tested compounds: the test compounds were configured into 1 mM reservoir solution. Then 1.5 μl of the reservoir solution was dissolved in 1.5 ml of DMSO-free culture solution, and then a 3-fold serial gradient dilution was performed with 0.1% DMSO culture solution for a total of 9 concentrations, and the concentrations of the compounds after dilution were as follows: • 333.33 nM, 111.11 nM, 37.03 nM, 12.35 nM, 4.15 nM, 1.37 nM, 0.46 nM, 0.15 nM • B) After thorough mixing, 100 μL of culture compound solution was taken separately to replace the culture solution in the cell culture plate, with 4 replicate wells for each concentration; • C) The cells were transferred to the incubator and incubated for 3 days.
• A) Removed the cell culture plate and added 10 μl of CCK-8 (WST-8) solution per well in the biosafety cabinet. • B) Placed the cell culture plate back into the incubator and continued incubation for 3 hours. • C) Determined the absorbance value by selecting 450 nm on a TECAN enzyme-linked immunoassay detector.
The cell viability (% Cell Viability) was calculated using the following formula.
[formula] • A (dosing): absorbance of wells with cells, CCK8 solution and drug solution • A (blank): absorbance of wells with medium and CCK8 solution but no cells • A (0 dosing): absorbance of wells with cells, CCK8 solution and no drug solution • Cell viability: Cell proliferation viability or cytotoxicity viability IC50 values were obtained by curve fitting with GraphPad Prism 8 software.

SMILES | IC50 [nM]
C=CC(=O)N1CCC(c2cc(F)cnc2Oc2ccc(C(F)(F)F)cc2)CC1 [Compound T38] | 100 to 1000
C=CC(=O)N1CCC(c2cc(C)cnc2Oc2ccc(C(F)(F)F)cc2)CC1 [Compound T44] | 100 to 1000
C=CC(=O)N1CCC(c2nc(C)c(C)nc2Nc2ccc(C(F)(F)F)cc2)CC1 [Compound T93] | 100 to 1000
C=CC(=O)N1CCC(c2cc(-c3cn(C)cn3)cnc2Nc2ccc(C(F)(F)F)cc2)CC1 [Compound T62] | 100 to 1000
C=CC(=O)N1CCC(c2cc(-c3cccnc3)cnc2Nc2ccc(C(F)(F)F)cc2)CC1 [Compound T96] | 1000 to 5000
CC#CC(=O)N1CCC(c2cccnc2Nc2ccc(C(F)(F)F)cc2)CC1 [Compound T50] | 1000 to 5000
C=CC(=O)N1CCC(c2ccc(C(F)(F)F)nc2Nc2ccc(C(F)(F)F)cc2)CC1 [Compound T45] | 1000 to 5000
C/C=C/C(=O)N1CCC(c2cccnc2Nc2ccc(C(F)(F)F)cc2)CC1 [Compound T53] | 1000 to 5000
C=CC(=O)N1CCC(c2cc(C(F)(F)F)cnc2Oc2ccc(C(F)(F)F)cc2)CC1 [Compound T39] | 100 to 1000
C=CC(=O)N1CCN(c2cccnc2Nc2ccc(C(F)(F)F)cc2)CC1 [Compound T36] | 100 to 1000

More lines, now with the values ahead:

IC50 [nM] | SMILES
100 to 1000 | C=C(F)C(=O)N1CCC(c2cccnc2Oc2ccc(C(F)(F)F)cc2)C(F)(F)C1 (stereo not drawn) [Compound T81]
≤ 100 | C=CC(=O)N1CCC(c2ccc(C)nc2Nc2ccc(C(F)(F)F)cc2)CC1 [Compound T21]
≤ 100 | C=CC(=O)N1CC=C(c2cccnc2Nc2ccc(C(F)(F)F)cc2)C1 [Compound T4]
≤ 100 | C=CC(=O)N1CC=C(c2cccnc2Nc2ccc(S(F)(F)(F)(F)F)cc2)C1 [Compound T9]
≤ 100 | C=CC(=O)N1CC=C(c2cccnc2Nc2ccc(S(F)(F)(F)(F)F)cc2)CC1 [Compound T7]
≤ 100 | C=CC(=O)N1CCC(c2c(C)ccnc2Nc2ccc(C(F)(F)F)cc2)CC1 [Compound T23]
≤ 100 | C=CC(=O)N1CC=C(c2nccnc2Nc2ccc(C(F)(F)F)cc2)C1 [Compound T19]
≤ 100 | C=CC(=O)N1CC=C(c2cccnc2Nc2ccc(C)cc2)C1 [Compound T14]

Each molecule was assayed on YAP-TEAD (assay: Nano luciferase method to detect YAP-TEAD inhibitor activity (293T cells transfected with pGL3B-8×GTiiC-nLuc-CMV-fLuc)). Settings: Homo sapiens, HEK-293T; transfected 293T cells, 48 hours incubation; read-out: Nano Luciferas detection (IC50).
Type: cell-based
Source text: Experimental Example 2 Nano Luciferase Method to Detect YAP-TEAD Inhibitor Activity
(1) Experimental materials and equipment: 293T cells were purchased from Nanjing Cobioer Biosciences CO., LTD. DMEM medium (high sugar, phenol red free, Bio-Channel), DMSO (dimethyl sulfoxide), Lipo6000™ transfection reagent (Beyotime), pGL3B-8×GTiiC-nLuc-CMV-fLuc plasmid, 0.25% EDTA Tripsin (trypsin solution), 1×PBS (phosphate buffer, PH7.2), 96-well white cell culture plate (PerkinElmer), Fetal Bovine Serum (FBS), 10,000 U/mL penicillin-G/streptomycin, High-speed cryo-centrifuge (EPPENDORF 5810R), 37° C. CO^2 incubator, Vi-Cell® cell counter, Envision microplate reader (PerkinElmer).
Resuscitated 293T cells were inoculated into 10 cm petri dishes and placed in a 5% CO^2 incubator at a constant temperature of 37° C. To ensure transfection efficiency, cells in the logarithmic phase (cell density of about 50%-70%) should be used.
One day before transfection, cells in logarithmic phase were digested with Trypsin-EDTA, the reaction was terminated by adding medium, and the cell suspension was made by blowing and mixing with a pipette.
The cell concentration was determined using Vi-cell and diluted to a suspension of 5*10^5 cells per milliliter. Once the cell suspension was prepared, it was gently mixed and 10 ml of liquid was added to a 10 cm petri dish. […] The cells were incubated in a 5% CO^2 incubator at 37° C. for 1 day.
Take two clean and sterile centrifuge tubes, added 750 μL of opti-MEM Medium without antibiotics and serum respectively, then added […] of plasmid (pGL3B-8×GTiiC-nLuc-CMV-fLuc) to one of the tubes and gently blown with a pipette for mixing; the other tube was added with Lipo6000 transfection reagent and gently blown with a pipette for mixing. After standing at room temperature for 5 minutes, the culture medium containing DNA was gently added to the culture medium containing Lipo6000 transfection reagent, mixed by gently inverting the centrifuge tube, and stood at room temperature for 5 minutes.
The above mixture was added evenly dropwise to a 10-cm petri dish and replaced with fresh complete medium after 6 h of incubation.
After 1 day of transfection, Trypsin EDTA was used to digest the cells, medium was added to terminate the reaction, and a cell suspension was made by blowing and mixing with a pipette.
Cell concentration was determined using Vi-cell, and diluted to a suspension of 20,000 cells per milliliter.
After the cell suspension was prepared, it was gently mixed and 100 μL was added to each well in a 96-well plate so that the density of cells to be measured was 2000 per well.
The inoculated cell culture plates were incubated in an incubator, and the compounds in concentration gradients were added after about 24 hours.
The 10 mM compound reservoir solution was diluted to 50 μM with culture medium, and 50 μM compound solution was added sequentially to the third column of the deep-well plate, and 216 μL of culture medium containing 0.5% DMSO to the fourth to eleventh columns.
Gradient dilution: 100 μL of solution was pipetted from the third column and added to the fourth column, after mixing; another 100 μL of solution was pipetted from the fourth column and added to the fifth column, and the operation was repeated until the eleventh column.
Using a multichannel pipette, 25 μL of compound solution was pipetted from the deep-well plate and added to the 96-well culture plate, and each compound was repeated four times on the 96-well plate. A concentration gradient with a maximum concentration of 10,000 nM, 1:3.16, was eventually formed on the 96-well plate.
The 96-well plate was incubated in a 5% CO^2 incubator at a constant temperature of 37° C. for 48 hours, then removed and equilibrated at room temperature for 10 minutes.
100 μL of detection reagent was added to each well and placed on a horizontal shaker at low speed for 10 minutes to fully lyse the cells. […]

SMILES | IC50 [nM]
C=CC(=O)N1CCC(c2cc(F)cnc2Oc2ccc(C(F)(F)F)cc2)CC1 [Compound T38] | 100 to 1000
C=CC(=O)N1CCC(c2cc(C)cnc2Oc2ccc(C(F)(F)F)cc2)CC1 [Compound T44] | 100 to 1000
C=CC(=O)N1CCC(c2nc(C)c(C)nc2Nc2ccc(C(F)(F)F)cc2)CC1 [Compound T93] | 100 to 1000
C=CC(=O)N1CCC(c2cc(-c3cn(C)cn3)cnc2Nc2ccc(C(F)(F)F)cc2)CC1 [Compound T62] | ≤ 100
C=CC(=O)N1CCC(c2cc(-c3cccnc3)cnc2Nc2ccc(C(F)(F)F)cc2)CC1 [Compound T96] | 100 to 1000
CC#CC(=O)N1CCC(c2cccnc2Nc2ccc(C(F)(F)F)cc2)CC1 [Compound T50] | 1000 to 5000
C=CC(=O)N1CCC(c2ccc(C(F)(F)F)nc2Nc2ccc(C(F)(F)F)cc2)CC1 [Compound T45] | 100 to 1000
C/C=C/C(=O)N1CCC(c2cccnc2Nc2ccc(C(F)(F)F)cc2)CC1 [Compound T53] | 100 to 1000
C=CC(=O)N1CCC(c2cc(C(F)(F)F)cnc2Oc2ccc(C(F)(F)F)cc2)CC1 [Compound T39] | 100 to 1000
C=CC(=O)N1CCN(c2cccnc2Nc2ccc(C(F)(F)F)cc2)CC1 [Compound T36] | 100 to 1000

Results, then the molecule that gave them:

IC50 [nM] | SMILES
100 to 1000 | C=C(F)C(=O)N1CCC(c2cccnc2Oc2ccc(C(F)(F)F)cc2)C(F)(F)C1 (stereo not drawn) [Compound T81]
≤ 100 | C=CC(=O)N1CCC(c2ccc(C)nc2Nc2ccc(C(F)(F)F)cc2)CC1 [Compound T21]
≤ 100 | C=CC(=O)N1CC=C(c2cccnc2Nc2ccc(C(F)(F)F)cc2)C1 [Compound T4]
≤ 100 | C=CC(=O)N1CC=C(c2cccnc2Nc2ccc(S(F)(F)(F)(F)F)cc2)C1 [Compound T9]
≤ 100 | C=CC(=O)N1CC=C(c2cccnc2Nc2ccc(S(F)(F)(F)(F)F)cc2)CC1 [Compound T7]
≤ 100 | C=CC(=O)N1CCC(c2c(C)ccnc2Nc2ccc(C(F)(F)F)cc2)CC1 [Compound T23]
≤ 100 | C=CC(=O)N1CC=C(c2nccnc2Nc2ccc(C(F)(F)F)cc2)C1 [Compound T19]
≤ 100 | C=CC(=O)N1CC=C(c2cccnc2Nc2ccc(C)cc2)C1 [Compound T14]

Source: patent publication US20260152480A1, “POLYCYCLIC COMPOUND AND USE THEREOF” (TYK MEDICINES , INC., priority 2022, published 2026)
